Laboratory results reported in patent US20090264433A1, “Compounds, Compositions and Methods Comprising Triazine Derivatives” (Institute for OneWorld Health, priority 2008, published 2009).
Counter-ions that a name gives are not always drawn.

Biological target: T1, CFTR channel in human colonic T84 cells (Homo sapiens, UniProt P13569)
T1 construct: results in the phosphorylation and opening of CFTR anion channels; host or cells: human colonic T84 cells
Test: T84 assay (FLIPR membrane potential dye, forskolin/IBMX-stimulated CFTR)
Type: cell-based
Settings: average of at least 2 runs unless annotated n = 1
Outline: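 T84 cells (25,000/well, grown overnight) were washed in HBSS with 10 mM Hepes, then loaded with FLIPR Red membrane potential dye for 45 min with or without compound. CFTR was stimulated with 10 μM forskolin plus 100 μM IBMX after a 10 s baseline. Depolarization was tracked as a fluorescence increase, read every second for 150 s.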

T1 sequence (P13569 whole entry): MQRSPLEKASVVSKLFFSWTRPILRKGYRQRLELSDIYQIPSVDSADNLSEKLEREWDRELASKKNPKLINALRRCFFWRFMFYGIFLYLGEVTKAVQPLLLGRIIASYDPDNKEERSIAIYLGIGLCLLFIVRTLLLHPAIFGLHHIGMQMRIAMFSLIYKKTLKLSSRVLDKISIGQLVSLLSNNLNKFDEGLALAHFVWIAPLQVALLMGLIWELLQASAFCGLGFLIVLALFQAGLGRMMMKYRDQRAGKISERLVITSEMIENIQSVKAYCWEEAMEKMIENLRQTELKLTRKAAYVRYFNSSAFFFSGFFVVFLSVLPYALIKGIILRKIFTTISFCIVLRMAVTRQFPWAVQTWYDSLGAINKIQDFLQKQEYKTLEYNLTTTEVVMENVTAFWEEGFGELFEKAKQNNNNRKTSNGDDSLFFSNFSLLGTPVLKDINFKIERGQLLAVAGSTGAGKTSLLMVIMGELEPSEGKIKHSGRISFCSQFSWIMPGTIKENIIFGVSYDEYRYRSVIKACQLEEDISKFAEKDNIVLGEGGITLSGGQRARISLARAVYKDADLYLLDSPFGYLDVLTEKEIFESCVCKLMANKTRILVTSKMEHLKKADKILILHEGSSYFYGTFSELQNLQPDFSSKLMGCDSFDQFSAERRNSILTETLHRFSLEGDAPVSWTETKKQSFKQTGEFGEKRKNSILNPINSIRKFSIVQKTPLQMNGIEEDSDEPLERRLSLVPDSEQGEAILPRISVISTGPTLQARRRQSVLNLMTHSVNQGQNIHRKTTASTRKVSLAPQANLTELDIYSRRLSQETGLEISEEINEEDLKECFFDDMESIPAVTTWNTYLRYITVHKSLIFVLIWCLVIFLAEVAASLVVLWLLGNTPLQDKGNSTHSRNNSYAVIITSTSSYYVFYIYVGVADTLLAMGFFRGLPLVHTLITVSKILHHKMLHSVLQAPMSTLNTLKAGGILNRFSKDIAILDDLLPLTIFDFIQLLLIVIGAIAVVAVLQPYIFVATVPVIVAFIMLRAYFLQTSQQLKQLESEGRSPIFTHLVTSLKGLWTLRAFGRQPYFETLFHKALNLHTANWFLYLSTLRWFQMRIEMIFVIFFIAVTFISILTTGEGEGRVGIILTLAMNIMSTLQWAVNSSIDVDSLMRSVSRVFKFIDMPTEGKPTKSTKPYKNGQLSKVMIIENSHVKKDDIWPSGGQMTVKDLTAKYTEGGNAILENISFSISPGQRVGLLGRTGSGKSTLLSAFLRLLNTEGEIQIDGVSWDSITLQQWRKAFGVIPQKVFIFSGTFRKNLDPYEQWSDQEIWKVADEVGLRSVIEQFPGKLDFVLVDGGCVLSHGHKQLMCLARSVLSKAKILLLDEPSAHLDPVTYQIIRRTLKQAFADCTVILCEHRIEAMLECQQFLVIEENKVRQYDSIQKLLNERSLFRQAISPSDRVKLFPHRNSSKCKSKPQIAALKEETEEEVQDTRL

CN(Cc1ccc(COc2ncc(-c3cc(Cl)c(O)c(Cl)c3)nn2)cc1)C(c1ccccc1)c1ccccc1 [Compound 171, 4-(3-(4-((benzhydryl(methyl)amino)methyl)benzyloxy)-1,2,4-triazin-6-yl)-2,6-dichlorophenol]
IC50: 14.4 µM

Oc1c(Br)cc(-c2cnc(OCc3ccc4ccccc4c3)nn2)cc1Br [Compound 8, 2,6-dibromo-4-(3-(naphthalen-2-ylmethoxy)-1,2,4-triazin-6-yl)phenol]
IC50: 0.72 µM

CN(Cc1ccc(F)cc1)Cc1ccc(COc2ncc(-c3cc(Cl)c(O)c(Cl)c3)nn2)cc1 [Compound 165, 2,6-dichloro-4-(3-(4-(((4-fluorobenzyl)(methyl)amino)methyl)benzyloxy)-1,2,4-triazin-6-yl)phenol]
IC50: 2.46 µM

Cc1cc(Cl)ccc1OCc1ncc(-c2cc(Cl)c(O)c(Cl)c2)nn1 [Compound 40, 2,6-dichloro-4-(3-((4-chloro-2-methylphenoxy)methyl)-1,2,4-triazin-6-yl)phenol]
IC50: 10.5 µM

Oc1c(Br)cc(-c2cnc(OCc3ccncc3)nn2)cc1Br [Compound 106, 2,6-dibromo-4-(3-(pyridin-4-ylmethoxy)-1,2,4-triazin-6-yl)phenol]
IC50: 18.1 µM

CN(C)c1ccccc1COc1ncc(-c2cc(Cl)c(O)c(Cl)c2)nn1 [Compound 140, 2,6-dichloro-4-(3-(2-(dimethylamino)benzyloxy)-1,2,4-triazin-6-yl)phenol]
IC50: 19.4 µM

CN(Cc1ccc(COc2ncc(-c3cc(Cl)c(O)c(Cl)c3)nn2)cc1)Cc1cccc(-c2ncccn2)c1 [Compound 205, 2,6-dichloro-4-(3-(4-((methyl(3-(pyrimidin-2-yl)benzyl)amino)methyl)benzyl-oxy)-1,2,4-triazin-6-yl)phenol]
IC50: 4.18 µM

Oc1c(Br)cc(-c2cnc(OCc3ccc(Cl)cc3)nn2)cc1Br [Compound 20, 2,6-dibromo-4-(3-(4-chlorobenzyloxy)-1,2,4-triazin-6-yl)phenol]
IC50: 0.85 µM

CN(Cc1ccc(COc2ncc(-c3cc(Cl)c(O)c(Cl)c3)nn2)cc1)Cc1ccc(-c2ccncc2)cc1 [Compound 187, 2,6-dichloro-4-(3-(4-((methyl(4-(pyridin-4-yl)benzyl)amino)methyl)benzyl-oxy)-1,2,4-triazin-6-yl)phenol]
IC50: 3.79 µM

Oc1c(Br)cc(-c2cnc(COc3ccc4c(c3)CCC4)nn2)cc1Br [Compound 48, 2,6-dibromo-4-(3-((2,3-dihydro-1H-inden-5-yloxy)methyl)-1,2,4-triazin-6-yl)phenol]
IC50: 14.8 µM

CN(Cc1ccc(COc2ncc(-c3cc(Cl)c(O)c(Cl)c3)nn2)cc1)Cc1ccc(-c2ncccn2)cc1 [Compound 202, 2,6-dichloro-4-(3-(4-((methyl(4-(pyrimidin-2-yl)benzyl)amino)methyl)benzyl-oxy)-1,2,4-triazin-6-yl)phenol]
IC50: 1.87 µM

CC(C)(C)OC(=O)N1CCN(Cc2cc(Cl)ccc2OCc2ncc(-c3cc(Br)c(O)c(Br)c3)nn2)CC1 [Compound 92, tert-butyl 4-(5-chloro-2-((6-(3,5-dibromo-4-hydroxyphenyl)-1,2,4-triazin-3-yl)methoxy)benzyl)piperazine-1-carboxylate]
IC50: 4.56 µM

Cc1csc(CC(=O)N2CCN(Cc3ccc(COc4ncc(-c5cc(Cl)c(O)c(Cl)c5)nn4)cc3)CC2)n1 [Compound 225, 1-(4-(4-((6-(3,5-dichloro-4-hydroxyphenyl)-1,2,4-triazin-3-yloxy)methyl)benzyl)piperazin-1-yl)-2-(4-methylthiazol-2-yl)ethanone]
IC50: 11.1 µM

Oc1c(Cl)cc(-c2cnc(OCc3cccc(OC(F)(F)F)c3)nn2)cc1Cl [Compound 153, 2,6-dichloro-4-(3-(3-(trifluoromethoxy)benzyloxy)-1,2,4-triazin-6-yl)phenol]
IC50: 2.17 µM

CC(Oc1ncc(-c2cc(Br)c(O)c(Br)c2)nn1)c1cccc(Cl)c1 (stereo not shown) [Compound 12, 2,6-dibromo-4-(3-(1-(3-chlorophenyl)ethoxy)-1,2,4-triazin-6-yl)phenol]
IC50: 0.84 µM

CCC(=O)N1CCN(Cc2ccc(COc3ncc(-c4cc(Cl)c(O)c(Cl)c4)nn3)cc2)CC1 [Compound 221, 1-(4-(4-((6-(3,5-dichloro-4-hydroxyphenyl)-1,2,4-triazin-3-yloxy)methyl)benzyl)piperazin-1-yl)propan-1-one]
IC50: 17.4 µM

Oc1c(Cl)cc(-c2cnc(OCc3ccc(CNC(CN4CCCC4)c4ccccc4)cc3)nn2)cc1Cl (stereo not shown) [Compound 194, 2,6-dichloro-4-(3-(4-((1-phenyl2-(pyrrolidin-1-yl)ethylamino)methyl)benzyloxy)-1,2,4-triazin-6-yl)phenol]
IC50: 18.9 µM

OCCN(Cc1ccc(COc2ncc(-c3cc(Cl)c(O)c(Cl)c3)nn2)cc1)Cc1cccc(Cl)c1Cl [Compound 215, 2,6-dichloro-4-(3-(4-(((2,3-dichlorobenzyl)(2-hydroxyethyl)amino)methyl)benzyloxy)-1,2,4-triazin-6-yl)phenol]
IC50: 4.54 µM

Oc1c(Cl)cc(-c2cnc(OC(Cc3ccccc3)c3ccccc3)nn2)cc1Cl (stereo not shown) [Compound 111, 2,6-dichloro-4-(3-(1,2-diphenylethoxy)-1,2,4-triazin-6-yl)phenol]
IC50: 1.89 µM

Oc1c(Br)cc(-c2cnc(OCCc3ccc(Br)cc3)nn2)cc1Br [Compound 2, 2,6-dibromo-4-(3-(4-bromophenethoxy)-1,2,4-triazin-6-yl)phenol]
IC50: 0.32 µM

Oc1c(Br)cc(-c2cnc(OCc3cc(Cl)cc(Cl)c3)nn2)cc1Br [Compound 26, 2,6-dibromo-4-(3-(3,5-dichlorobenzyloxy)-1,2,4-triazin-6-yl)phenol]
IC50: 0.38 µM

Oc1c(Br)cc(-c2cnc(COc3ccc(C4SCCS4)cc3)nn2)cc1Br [Compound 51, 4-(3-((4-(1,3-dithiolan-2-yl)phenoxy)methyl)-1,2,4-triazin-6-yl)-2,6-dibromophenol]
IC50: 18.8 µM

Oc1c(Br)cc(-c2cnc(OCCc3ccccc3Cl)nn2)cc1Br [Compound 94, 2,6-dibromo-4-(3-(2-chlorophenethoxy)-1,2,4-triazin-6-yl)phenol]
IC50: 0.34 µM

Oc1c(Cl)cc(-c2cnc(OCCc3cccc4ccccc34)nn2)cc1Cl [Compound 115, 2,6-dichloro-4-(3-(2-(naphthalen-1-yl)ethoxy)-1,2,4-triazin-6-yl)phenol]
IC50: 0.35 µM

CN(Cc1ccc(COc2ncc(-c3cc(Cl)c(O)c(Cl)c3)nn2)cc1)Cc1cccc(CN2CCCC2)c1 [Compound 212, 2,6-dichloro-4-(3-(4-((methyl(3-(pyrrolidin-1-ylmethyl)benzyl)amino)methyl)benzyloxy)-1,2,4-triazin-6-yl)phenol, formate salt]
IC50: 4.9 µM

Oc1c(Br)cc(-c2cnc(OCc3cccc4ccccc34)nn2)cc1Br [Compound 13, 2,6-dibromo-4-(3-(naphthalen-1-ylmethoxy)-1,2,4-triazin-6-yl)phenol]
IC50: 0.88 µM

CN(Cc1ccc(COc2ncc(-c3cc(Cl)c(O)c(Cl)c3)nn2)cc1)Cc1cccc(CN2CCOCC2)c1 [Compound 200, 2,6-dichloro-4-(3-(4-((methyl(3-(morpholinomethyl)benzyl)amino)methyl)benzyloxy)-1,2,4-triazin-6-yl)phenol]
IC50: 5.89 µM

Oc1c(Br)cc(-c2cnc(Oc3ccc(Cl)c(Cl)c3)nn2)cc1Br [Compound 21, 2,6-dibromo-4-(3-(3,4-dichlorophenoxy)-1,2,4-triazin-6-yl)phenol]
IC50: 2.12 µM
